# Laboratory results from patent publication EP4782449A1, “TRICYCLIC PYRIDINE COMPOUND ACTING AS SARM1 ENZYME ACTIVITY INHIBITOR, AND USE THEREOF” (Artivila (ShenZhen) Innovation Center, Ltd., priority 2023, dated 2025).
# How the values were obtained:
# SARM1 = target: T1, SARM1 (Homo sapiens, UniProt Q6SZW1); experiment: In vitro biochemical assay for inhibiting SARM1 enzyme activity (PC6 fluorescence, NADase); details: full-length SARM1 from transfected HEK293 cells; 50 µM NAD, 50 µM PC6, 50 µM NMN activator; room temperature, 30 minutes; read-out: IC50
# T1 construct: inventors produced full-length SARM1 for NAD enzyme activity experiments, and used it for screening; His (C); made in house; host or cells: HEK293 cells, transient transfection; supernatant of digitonin lysate, no further purification described
# T1 sequence (Q6SZW1 28-724): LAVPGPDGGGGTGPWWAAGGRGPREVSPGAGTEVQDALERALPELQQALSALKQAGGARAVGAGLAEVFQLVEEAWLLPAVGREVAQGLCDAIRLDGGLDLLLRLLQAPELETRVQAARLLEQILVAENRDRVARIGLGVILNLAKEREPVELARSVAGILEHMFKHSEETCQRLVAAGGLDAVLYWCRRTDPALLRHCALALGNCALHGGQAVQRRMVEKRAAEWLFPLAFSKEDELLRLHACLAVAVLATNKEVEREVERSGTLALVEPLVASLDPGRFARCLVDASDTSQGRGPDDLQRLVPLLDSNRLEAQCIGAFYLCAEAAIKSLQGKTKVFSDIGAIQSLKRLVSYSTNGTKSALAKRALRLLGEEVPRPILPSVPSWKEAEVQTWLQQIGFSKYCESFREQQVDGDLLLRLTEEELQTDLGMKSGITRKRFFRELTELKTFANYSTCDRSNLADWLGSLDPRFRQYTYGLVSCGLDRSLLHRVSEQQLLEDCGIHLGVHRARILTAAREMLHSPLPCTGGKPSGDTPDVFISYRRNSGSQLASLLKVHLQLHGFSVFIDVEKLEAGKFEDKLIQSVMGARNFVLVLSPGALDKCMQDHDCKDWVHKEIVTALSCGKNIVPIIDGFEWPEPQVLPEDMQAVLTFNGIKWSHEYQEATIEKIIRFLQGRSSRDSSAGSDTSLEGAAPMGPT
# Description: The gene sequence of SARM1 protein was amplified using PCR, and the PCR amplification product was constructed into pcDNA3.1-HIS-C plasmid. The above construction was completed by YouBio(Hunan, China). HEK293 cells were cultured in 10 cm dishes using DMEM, and the cells were transfected with 15 μg pcDNA3.1-SARM[…]-C expression plasmid on the following day. Cells were collected 48 hours after transfection, and SARM1 protein expressed in the cells was obtained by digitonin lysis for in vitro activity assay experiments. The specific procedure was as follows: Cells were digested with trypsin-EDTA, then centrifuged at 1000 rpm for 5 minutes, washed once with PBS, and then resuspended in PBS containing 100 μM digitonin, with 0.6 mL PBS for the cells in per 10 cm dish, and lysed for 5 minutes. […] Then the supernatant containing SARM1 protein was collected by centrifugation at 5000 rpm for 10 minutes. […] A group without inhibitor was used as control group. All mixtures were incubated at room temperature for 10 minutes. Then, 50 μM NAD and 50 μM PC6 as substrates and 50 μM NMN as an activator were added to the SARM1 protein incubated with the inhibitor, and the reaction was carried out at room temperature for 30 minutes. The concentrations of each component were the final concentrations in the reaction system. […] Finally, the reaction rate was used to represent the protein activity and calculate the half-maximal inhibitory concentration.
# [1] = system: dorsal root ganglion explants; experiment: Axonal Wallerian degeneration assay in mouse DRG explant culture; format: cell-based, C57BL/6 male mice; details: 10 µM test compound, 2 hours pretreatment, axons transected, images at 0 hour and 24 hours
# From the text: The experimental method was based on Gerdts J et al. (Gerdts J, Sasaki Y, Vohra B, Marasa J, Milbrandt J. Image-based screening identifies novel roles for IkappaB kinase and glycogen synthase kinase 3 in axonal degeneration. J Biol Chem. 2011 Aug 12;286(32):28011-8).
# Dorsal root ganglia were dissected from 2-month-old C57BL/6 male mice and placed in 35 mm culture dishes containing pre-cooled HBSS buffer. Excess tissue from each dorsal root ganglion was removed and cut into 2-3 explants using a scalpel, and the explants were planted in wells of a 96-well plate coated with 100 ng/mL Matrigel (Corning). 100 µL of DRG culture medium (Neurobasal medium (Gibco) containing 2% B-27 (Gibco), 1% GlutaMax (Gibco), and 10 ng/mL NGF (MCE)) was added, then cultured in a 37°C incubator for one week, with medium change on day 4, and experiments were performed on day 8.
# 0.1 µL of 10 mM test compound was dissolved in 100 µL DRG culture medium to prepare new culture medium containing 10 µM test compound. The culture medium in the 96-well plate was aspirated and new culture medium containing the test compound was added. Then the dorsal root ganglion explants were incubated with the medium in a 37°C incubator for 2 hours for pre-protection. After 2-hour pretreatment, a glass electrode was used to transect axons in the area near the tissue block, and bright-field images of axons in the same area were captured at 0 hour and 24 hours post axonal degeneration using a 20x objective lens of a microscope (Olympus). Axonal integrity was evaluated using an in-house developed script.
Compound,IC50 (SARM1) [nM],Degree of Protection Against Axonal Wallerian Degeneration [1]
O=C1C(Cc2ccc3c(c2)CC3)CCN1c1ccc2c(c1)COc1cnccc1-2 (stereo not shown) [Compound 19],1000 to 10000,A (substantial protection (A) >50%)
O=C(CCc1ccc(Cl)c(Cl)c1)Nc1ccc2c(c1)COc1cnccc1-2 [Compound 21],< 100,A (substantial protection (A) >50%)
O=C(CCc1ccc(F)c(F)c1)Nc1ccc2c(c1)COc1cnccc1-2 [Compound 25],< 100,A (substantial protection (A) >50%)
O=C(CCc1ccc(C(F)(F)F)cc1)Nc1ccc2c(c1)COc1cnccc1-2 [Compound 32],100 to 1000,B (partial protection (B): 20% to 50%)
N#Cc1ccc(CCC(=O)Nc2ccc3c(c2)COc2cnccc2-3)cc1 [Compound 33],< 100,A (substantial protection (A) >50%)
O=C(CCc1cccc(F)c1)Nc1ccc2c(c1)COc1cnccc1-2 [Compound 34],< 100,A (substantial protection (A) >50%)
O=C(CCc1ccc(F)cc1F)Nc1ccc2c(c1)COc1cnccc1-2 [Compound 37],100 to 1000,A (substantial protection (A) >50%)
"O=C(CCc1ccc(Cl)cc1)Nc1ccc2c(c1)COc1cnccc1-2 [Compound 42, 3-(4-chlorophenyl)-N-(6H-isochromeno[3,4-c]pyridin-8-yl)propanamide]",< 100,A (substantial protection (A) >50%)
"O=C(NCc1ccc(F)cc1)Nc1ccc2c(c1)COc1cnccc1-2 [Compound 45, 1-(4-fluorobenzyl)-3-(6H-isochromeno[3,4-c]pyridin-8-yl)urea]",< 100,A (substantial protection (A) >50%)
O=C(NCc1cccc(F)c1)Nc1ccc2c(c1)COc1cnccc1-2 [Compound 47],100 to 1000,A (substantial protection (A) >50%)
O=C1C(Cc2cccc3c2CCCC3)CCN1c1ccc2c(c1)COc1cnccc1-2 (stereo not shown) [Compound 56],1000 to 10000,B (partial protection (B): 20% to 50%)
O=C1C(Cc2ccc3ccsc3c2)CCN1c1ccc2c(c1)COc1cnccc1-2 (stereo not shown) [Compound 58],1000 to 10000,B (partial protection (B): 20% to 50%)
O=C1C(Cc2cc3ccccc3o2)CCN1c1ccc2c(c1)COc1cnccc1-2 (stereo not shown) [Compound 59],1000 to 10000,B (partial protection (B): 20% to 50%)
O=C1C(Cc2ccncc2)CCN1c1ccc2c(c1)COc1cnccc1-2 (stereo not shown) [Compound 62],100 to 1000,A (substantial protection (A) >50%)
O=C(NCc1ccc(Cl)cc1)Nc1ccc2c(c1)COc1cnccc1-2 [Compound 63],100 to 1000,A (substantial protection (A) >50%)
O=C(NCc1cc(F)c(F)c(F)c1)Nc1ccc2c(c1)COc1cnccc1-2 [Compound 67],< 100,A (substantial protection (A) >50%)
Cc1ccc(CNC(=O)Nc2ccc3c(c2)COc2cnccc2-3)cc1 [Compound 72],100 to 1000,B (partial protection (B): 20% to 50%)
CC(Cc1ccc(F)cc1)C(=O)Nc1ccc2c(c1)COc1cnccc1-2 (stereo not shown) [Compound 73],100 to 1000,A (substantial protection (A) >50%)
O=C(COc1ccc(F)cc1)Nc1ccc2c(c1)COc1cnccc1-2 [Compound 74],< 100,B (partial protection (B): 20% to 50%)

# Further lines, with some results ahead:
IC50 (SARM1) [nM],Compound,Degree of Protection Against Axonal Wallerian Degeneration [1]
100 to 1000,O=C(CCc1ccc(Br)cc1)Nc1ccc2c(c1)COc1cnccc1-2 [Compound 22],A (substantial protection (A) >50%)
< 100,O=C(CCc1cc(F)c(F)c(F)c1)Nc1ccc2c(c1)COc1cnccc1-2 [Compound 27],B (partial protection (B): 20% to 50%)
100 to 1000,O=C(CCc1ccc(Cl)c(F)c1)Nc1ccc2c(c1)COc1cnccc1-2 [Compound 28],A (substantial protection (A) >50%)
< 100,"O=C(CCc1ccc(F)cc1)Nc1ccc2c(c1)COc1cnccc1-2 [Compound 29, 3-(4-fluorophenyl)-N-(6H-isochromeno[3,4-c]pyridin-8-yl)propanamide]",A (substantial protection (A) >50%)
100 to 1000,N#Cc1ccc(CCC(=O)Nc2ccc3c(c2)COc2cnccc2-3)cc1F [Compound 30],A (substantial protection (A) >50%)
1000 to 10000,O=C(CCc1ccc(Cl)s1)Nc1ccc2c(c1)COc1cnccc1-2 [Compound 36],A (substantial protection (A) >50%)
< 100,O=C(CCc1cc(F)cc(F)c1)Nc1ccc2c(c1)COc1cnccc1-2 [Compound 39],A (substantial protection (A) >50%)
1000 to 10000,O=C(CCc1ccc(Cl)cc1F)Nc1ccc2c(c1)COc1cnccc1-2 [Compound 40],A (substantial protection (A) >50%)
100 to 1000,Cc1ccc(CCC(=O)Nc2ccc3c(c2)COc2cnccc2-3)cc1 [Compound 41],A (substantial protection (A) >50%)
100 to 1000,O=C(NCc1ccc(F)c(F)c1)Nc1ccc2c(c1)COc1cnccc1-2 [Compound 46],A (substantial protection (A) >50%)
100 to 1000,O=C(CCc1cccnc1)Nc1ccc2c(c1)COc1cnccc1-2 [Compound 50],A (substantial protection (A) >50%)
100 to 1000,O=C1C(Cc2ccc3occc3c2)CCN1c1ccc2c(c1)COc1cnccc1-2 (stereo not shown) [Compound 57],B (partial protection (B): 20% to 50%)
1000 to 10000,O=C(NCc1ccc(Cl)c(Cl)c1)Nc1ccc2c(c1)COc1cnccc1-2 [Compound 65],B (partial protection (B): 20% to 50%)
100 to 1000,O=C(NCc1ccc(Cl)c(F)c1)Nc1ccc2c(c1)COc1cnccc1-2 [Compound 68],A (substantial protection (A) >50%)
1000 to 10000,N#Cc1ccc(CNC(=O)Nc2ccc3c(c2)COc2cnccc2-3)cc1 [Compound 70],B (partial protection (B): 20% to 50%)
1000 to 10000,O=C(NCc1ccccc1)Nc1ccc2c(c1)COc1cnccc1-2 [Compound 71],B (partial protection (B): 20% to 50%)
